Assay results published in the CheMixHub ionic liquid set.
± gives the uncertainty stated by the source.

Assay: xn = mol fraction of the nth substance listed
Settings: 101 kPa, x1 = 1

Row | SMILES | electrical conductivity (288.15 K) [S/m] | electrical conductivity (298.15 K) [S/m] | electrical conductivity (333.15 K) [S/m] | electrical conductivity (298.15 K, x2 = 0) [S/m] | viscosity (298.15 K, x2 = 0) [mPa·s]
1 | CCCC[n+]1ccn(C)c1.N#C[N-]C#N + F[P-](F)(F)(F)(F)F.[Li+] | 0.596 ± 0.06 | 0.925 ± 0.093 | 2.77 ± 0.28 | – | –
2 | CC(=O)[O-].CC[n+]1ccn(C)c1 + Cn1ccnc1 + CCOC(C)=O | – | – | – | 0.297 ± 0.006 | 133.9 ± 5.6
